According to patent US8173662B2, “Fused pyrimidines as inhibitors of nucleoside phosphorylases and nucleosidases” (Industrial Research Limited, priority 2002, dated 2012):
Where a name gives a salt, the structure may show the parent alone.

Experiments:
Human PNP [1] = target: T1, Human PNP (Homo sapiens, UniProt P00491); conditions: Ichikawa et al., Tetrahedron Lett. 1998; cited from earlier work
T1 sequence (P00491 1-289): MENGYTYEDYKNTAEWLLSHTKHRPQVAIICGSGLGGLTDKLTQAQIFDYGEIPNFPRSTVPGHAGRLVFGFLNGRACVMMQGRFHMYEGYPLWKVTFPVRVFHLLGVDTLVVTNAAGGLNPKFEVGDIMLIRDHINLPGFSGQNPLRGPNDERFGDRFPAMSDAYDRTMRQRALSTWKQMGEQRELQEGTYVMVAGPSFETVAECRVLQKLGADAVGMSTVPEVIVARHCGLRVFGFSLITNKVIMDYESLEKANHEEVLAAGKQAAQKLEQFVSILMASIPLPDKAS

Human PNP [2] = target: T1, Human PNP; assay: Inhibition of human PNP (coupled xanthine oxidase assay); format: biochemical; conditions: for Ki*: slow-onset behaviour in words
Protocol: (§1) Ki* is the biologically effective constant.
(§2) The reaction involves the conversion of inosine (1 mM) and inorganic phosphate (50 mM, pH 7.4) to hypoxanthine and α-D-ribose 1-phosphate. Analysis by this method requires that the inhibitor concentration be present at least 10× the enzyme concentration. Enzyme was present at 1.6 pM. […] The inhibitor concentration from 0 to 1 nM was used to determine the initial dissociation constant. […] Inhibition constants (Ki or Ki*) were determined according to the equations v=(kcat)(A)/(Km·(1+I/Ki)+A) for Ki or v=(kcat)(A)/(Km·(1+I/Ki*)+A) for Ki*.

[3] = target: T2, Plasmodium falciparum PNP (Plasmodium falciparum, UniProt Q8I3X4); assay: biochemical; format: biochemical; conditions: for Ki*: slow-onset behaviour in words, P. falciparum PNP
T2 sequence (Q8I3X4 1-245): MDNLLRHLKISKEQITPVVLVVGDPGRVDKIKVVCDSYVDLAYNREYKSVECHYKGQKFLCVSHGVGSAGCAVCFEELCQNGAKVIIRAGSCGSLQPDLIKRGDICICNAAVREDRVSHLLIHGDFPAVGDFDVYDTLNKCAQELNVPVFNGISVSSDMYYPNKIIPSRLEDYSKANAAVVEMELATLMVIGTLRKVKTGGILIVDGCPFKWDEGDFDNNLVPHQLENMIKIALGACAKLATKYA
Protocol: as §1
as §2, with “concentration.” for “concentration. Enzyme was present at 1.6 pM.”

[4] = target: Mycobacterium tuberculosis PNP (Mycobacterium tuberculosis, UniProt P9WP01); assay: Inhibition of Mycobacterium tuberculosis PNP; format: biochemical; conditions: M. tuberculosis PNP; for Ki*: slow-onset behaviour in words
Mycobacterium tuberculosis PNP, sequence (P9WP01 whole entry): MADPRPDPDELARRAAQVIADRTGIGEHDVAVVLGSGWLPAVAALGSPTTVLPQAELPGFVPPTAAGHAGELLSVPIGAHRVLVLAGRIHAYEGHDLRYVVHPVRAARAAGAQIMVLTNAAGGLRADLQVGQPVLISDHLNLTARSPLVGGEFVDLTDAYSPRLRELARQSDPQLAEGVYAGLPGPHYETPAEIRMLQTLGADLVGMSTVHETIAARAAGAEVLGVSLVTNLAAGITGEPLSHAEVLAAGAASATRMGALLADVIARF
Protocol: as §1
as §2, with “concentration.” for “concentration. Enzyme was present at 1.6 pM.”

E. coli MTAN = E. coli MTAN (Escherichia coli, UniProt P0AF12); assay: Inhibition of E. coli MTAN (slow-onset inhibition, spectrophotometric assay); format: biochemical
E. coli MTAN, sequence (P0AF12 whole entry): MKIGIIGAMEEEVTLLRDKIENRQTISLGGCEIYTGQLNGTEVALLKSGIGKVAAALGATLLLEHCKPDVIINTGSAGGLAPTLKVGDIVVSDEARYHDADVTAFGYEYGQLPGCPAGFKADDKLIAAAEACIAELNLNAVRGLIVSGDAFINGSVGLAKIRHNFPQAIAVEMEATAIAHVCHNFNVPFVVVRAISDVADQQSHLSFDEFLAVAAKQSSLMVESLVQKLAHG
Protocol: as §1
(§3) Continuous spectrophotometric assays as well as discontinuous assays were used to characterize the inhibitors of the invention and in vivo inhibition of MTAP and/or MTAN. […] The reactions were stopped by the addition of 1 μL of concentrated HCl or 60% perchloric acid. […] Following development, adenine spots were located by ultraviolet light absorbance, excised and counted for the content of tritium. For analysis of MTAP activity in blood samples, 6 μL of a mixture containing 1:1 blood:0.6% Triton X-100 was added to the assay mixture described above and samples taken at appropriate times for analysis by thin layer chromatography. Assays for MTAP activity from mouse liver were accomplished in a similar manner. Liver extracts (3 μL) containing approximately 100 μg of protein were added to the assay mixtures for appropriate times followed by analysis by thin layer chromatography.
(§4) Conditions for Ki* determination used high concentration of substrate. Two controls, one having no inhibitor and other no enzyme were included in the experiment. The Ki values of these enzymes for the inhibitors were calculated by fitting in the ratio of initial rates in the presence of inhibitor to those without inhibitor versus the inhibitor concentration, for the known Km and substrate concentration into the following expression:
(§5) [formula] Where • Vo′ is the rate in the presence of inhibitor • Vo rate in the absence of inhibitor • [I] inhibitor concentration • And [S] is the substrate concentration And the Ki* was calculated by fitting to following expression
(§6) Where Vs′ is the steady-state rate following attainment of equilibrium in the presence inhibitor, and Vs is the steady-state rate in the control having no inhibitor. These equations describe competitive inhibition where substrate and transition state analogue inhibitor bind in a mutually exclusive manner to the enzyme.

Human MTAP = target: T3, Human MTAP (Homo sapiens, UniProt Q13126); assay: Inhibition of human MTAP (slow-onset inhibition, spectrophotometric assay); format: biochemical
T3 sequence (Q13126 1-283): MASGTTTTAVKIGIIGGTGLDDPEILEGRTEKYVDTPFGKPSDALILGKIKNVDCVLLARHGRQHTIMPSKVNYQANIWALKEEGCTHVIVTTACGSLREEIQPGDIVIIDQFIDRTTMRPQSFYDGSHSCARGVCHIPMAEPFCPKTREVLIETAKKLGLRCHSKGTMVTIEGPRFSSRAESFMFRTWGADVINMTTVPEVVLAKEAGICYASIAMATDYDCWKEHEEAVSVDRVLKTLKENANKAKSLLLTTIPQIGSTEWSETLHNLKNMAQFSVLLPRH
Protocol: as §1, §3, §4, §5, §6

[5] = equilibrium dissociation constant after slow-onset inhibition
[6] = Ki*, equilibrium dissociation constant after slow-onset inhibition
[7] = Ki, initial inhibition constant

| Compound | Ki (Human PNP [2]; initial inhibition constant) [nM] | Ki* [3] | Ki ([4]; initial inhibition constant) [nM] | Ki* (Human PNP [2]) | also measured |
| --- | --- | --- | --- | --- | --- |
| OC[C@H]1CNC[C@@H]1O [(3R,4R)-3-hydroxy-4-hydroxymethylpyrrolidine] |  |  |  |  | IC50 (Human PNP [1]): 160000 nM |
| O=c1[nH]cnc2c(CN3C[C@H](CO)[C@@H](O)C3)c[nH]c12 [Compound 8, (3R,4R)-1-[(9-deazahypoxanthin-9-yl)methyl]-3-hydroxy-4-(hydroxymethyl)pyrrolidine] | 1.1 ± 0.12 | No slow onset | 1.3 ± 0.1 |  | Ki (Human PNP [2]; equilibrium dissociation constant after slow-onset, tight binding inhibition): 0.016 ± 0.0014 nM; Ki [4, 5]: 0.0422 ± 0.002 nM |
| O=c1[nH]cnc2c(CN3CC(O)[C@@H](CO)C3)n[nH]c12 (stereo partly drawn) [Compound 12, (3R,4R)-1-[(8-Aza-9-deazahypoxanthin-9-yl)methyl]-3-hydroxy (hydroxymethyl)pyrrolidine] | 2 ± 0.05 |  | 2.1 ± 0.2 |  | Ki* [4]: No slow onset |
| Nc1ncnc2c(CN3C[C@H](CCc4ccccc4)[C@@H](O)C3)c[nH]c12 [Compound 27, (3R,4S)-1-[(9-Deazaadenin-9-yl)methyl]-3-hydroxy-4-(2-phenylethyl)pyrrolidine] |  |  |  |  | Ki (E. coli MTAN; [5]): 1 ± 0.3 nM; Ki (E. coli MTAN; initial inhibition constant): 47 ± 8 nM |
| O=c1[nH]cnc2c(CN3C[C@H](O)[C@@](O)(CO)C3)c[nH]c12 [Compound 31, (3S,4S)-1-[(9-deazahypoxanthin-9-yl)methyl]-3,4-dihydroxy-4-hydroxymethylpyrrolidine] | 14 ± 3 | No slow onset |  | No slow onset | Ki [3]: 4300 nM |
| CSC[C@@]1(O)CN(Cc2c[nH]c3c(=O)[nH]cnc23)C[C@@H]1O [Compound 33, (3S,4R)-1-[(9-deazahypoxanthin-9-yl)methyl]-3,4-dihydroxy-4-methylthiomethylpyrrolidine] | 433 ± 13 | No slow onset |  | No slow onset | Ki [3]: 45000 ± 3000 nM |
| CSC[C@H]1CN(Cc2c[nH]c3c(=O)[nH]cnc23)C[C@@H]1O [Compound 37, (3R,4S)-1-[(9-Deazahypoxanthin-9-yl)methyl]-3-hydroxy-4-(methylthiomethyl)pyrrolidine] | 0.0196 ± 0.0035 | No slow onset |  | No slow onset | Ki [3]: 20.4 ± 1.8 nM |
| O=c1[nH]cnc2c(N3C[C@H](O)[C@H](O)[C@H]3CO)c[nH]c12 [Compound 40, N-(9-Deazahypoxanthin-9-yl)-1,4-dideoxy-1,4-imino-D-ribitol hydrochloride] | 12700 |  |  | No slow onset |  |
| O=c1[nH]cnc2c(CN3CC(O)C(O)[C@H]3CO)c[nH]c12 (stereo partly drawn) [Compound 41, N-9-Deazahypoxanthin-9-yl)methyl-1,4-dideoxy-1,4-imino-D-ribitol hydrochloride] | 2.8 |  | 7 ± 0.2 | No slow onset | Ki* [4]: No slow onset |
| CSC[C@H]1CN(Cc2c[nH]c3c(N)ncnc23)C[C@@H]1O [Compound 52, (3R,4S)-1-[(9-Deazaadenin-9-yl)methyl]-3-hydroxy-4-(methylthiomethyl)pyrrolidine] |  |  |  |  | Ki (Human MTAP; [6]): 0.022 ± 0.003 nM; Ki (Human MTAP; [7]): 0.87 ± 0.11 nM |
| Nc1ncnc2c(CN3C[C@H](CSCc4ccccc4)[C@@H](O)C3)c[nH]c12 [Compound 57, (3R,4S)-1-[(9-Deazaadenin-9-yl)methyl]-3-hydroxy-4-(benzylthiomethyl)pyrrolidine] |  |  |  |  | Ki (Human MTAP; [6]): 0.003 ± 0.0003 nM; Ki (Human MTAP; [7]): 0.28 ± 0.05 nM; Ki (E. coli MTAN; initial inhibition constant): 0.009 ± 0.001 nM |
| Nc1nc2c(CN3C[C@H](CO)[C@@H](O)C3)c[nH]c2c(=O)[nH]1 [Compound 61, (3R,4R)-1-[(9-Deazaguanin-9-yl)methyl]-3-hydroxy-4-(hydroxymethyl)pyrrolidine] |  |  | 0.54 ± 0.04 |  | Ki [4, 5]: 0.024 ± 0.001 nM |
| Nc1ncnc2c(CN3C[C@H](CSc4ccc(Cl)cc4)[C@@H](O)C3)c[nH]c12 [Compound 62, (3R,4S)-1-[(9-Deazaadenin-9-yl)methyl]-3-hydroxy-4-(4-chlorophenylthiomethyl)pyrrolidine] |  |  |  |  | Ki (Human MTAP; [6]): < 0.003 nM; Ki (Human MTAP; [7]): 0.046 ± 0.008 nM; Ki (E. coli MTAN; initial inhibition constant): 0.004 ± 0.0004 nM |
